Test results taken from patent US5998488A, “Ophthalmic composition” (Lion Corporation, priority 1994, dated 1999).

Legend:
[1] = Benzalkonium chloride adsorption test (soft contact lenses, lens not given); format: physicochemical; details: α-cyclodextrin replaced by the other cyclodextrin
Experimental: (§1) The percent inhibition of benzalkonium chloride adsorption to commercially available soft contact lenses was determined by the following test.
(§2) Benzalkonium chloride adsorption test A 30-ml vial was charged with 10 ml of the solution and a soft contact lens was immersed therein. In a constant temperature tank at 25° C., the vial was shaken for 24 hours. After the contact lens was removed from the vial, the concentration of benzalkonium chloride in the solution was quantitatively determined by high performance liquid chromatography. A percent inhibition of adsorption was calculated according to the following formula.
(§3) As a control, the above procedure was repeated except that no contact lens was immersed.
(§4) Inhibition of adsorption (%)=(concentration of benzalkonium chloride in sample solution)/(concentration of benzalkonium chloride in control solution)×100
(§5) Solutions of the formulation shown in Table 7 were prepared to a total amount of 1,000 g in a conventional manner as used in the preparation of eye drops. Ophthalmic solutions of Examples 2 to 13 were obtained. The ophthalmic solutions were subject to the same tests as in Experiments 1 and 3. In the test of Experiment 3, the ophthalmic solutions were evaluated for antimicrobial activity according to the same criterion as before.

[2] = Benzalkonium chloride adsorption test (soft contact lens Seequence); format: physicochemical; details: α-cyclodextrin 0%; benzalkonium chloride 0.01%; 25° C., 24 hours
Experimental: (§6) A test was conducted to examine the inhibition of benzalkonium chloride adsorption to soft contact lenses. Solutions of the following formulation were prepared in a conventional manner as used in the preparation of eye drops.
as §1, §2, §3, §4
(§7) Note that Seequence, Nichicon Soft and Menicon Soft are trademarks of soft contact lenses commercially available from Bausch & Lomb, Nihon Contact K.K., and Menicon K.K., respectively.

[3] = Benzalkonium chloride adsorption test (soft contact lens Menicon Soft 72); format: physicochemical; details: α-cyclodextrin 0%; benzalkonium chloride 0.01%; 25° C., 24 hours
Experimental: as §6, §1, §2, §3, §4, §7

[4] = Benzalkonium chloride adsorption test (soft contact lens Nichicon Soft μ); format: physicochemical; details: α-cyclodextrin 0%; benzalkonium chloride 0.01%; 25° C., 24 hours
Experimental: as §6, §1, §2, §3, §4, §7

[5] = tested on: E. coli, P. aeru, S. aureus, A. nigar, Candida; test: Antimicrobial test (preservative effectiveness test, USP), microorganism type not specified; format: cell-based; details: for Antimicrobial activity: about pH 7.2; for Enhancement of antimicrobial activity (in words): solutions containing benzalkonium chloride, α-cyclodextrin, and EDTA-2Na, alone or in admixture
Experimental: Using bacteria Escherichia coli (E. coli), Pseudomonas aeruginosa (P. aeru), and Stapyrococcus aureus (S. aureus) and fungi Aspergillus nigar (A. nigar) and Candida albicans (Candida) as infectious microorganisms, a preservative effectiveness test was carried out according to the Pharmacopoeia of the United States.
++: microorganisms died within 5 days
+: microorganisms died in 6-10 days
-:microorganisms died in 11-15 days or over 15 days
Solutions were prepared in accordance with the formulation shown in Experiment 1 in a conventional manner as used in the preparation of eye drops while the amount of disodium ethylenediaminetetraacetate (EDTA-2Na) blended was in the range of 0.002 to 0.3%. The solutions were subject to the antimicrobial test of Experiment 3 and evaluated for antimicrobial activity according to the same criterion as above.
Solutions of the following formulation were prepared in a conventional manner as used in the preparation of eye drops.
The solutions were subject to the antimicrobial test of Experiment 3 and evaluated for antimicrobial activity according to the same criterion as above.
as §5, with “Ophthalmic solutions of Examples 2 to 13 were obtained.” left out

With OC[C@H]1O[C@@H]2O[C@H]3[C@H](O)[C@@H](O)[C@@H](O[C@H]4[C@H](O)[C@@H](O)[C@@H](O[C@H]5[C@H](O)[C@@H](O)[C@@H](O[C@H]6[C@H](O)[C@@H](O)[C@@H](O[C@H]7[C@H](O)[C@@H](O)[C@@H](O[C@H]8[C@H](O)[C@@H](O)[C@@H](O[C@H]9[C@H](O)[C@@H](O)[C@@H](O[C@H]1[C@H](O)[C@H]2O)O[C@@H]9CO)O[C@@H]8CO)O[C@@H]7CO)O[C@@H]6CO)O[C@@H]5CO)O[C@@H]4CO)O[C@@H]3CO [γ-cyclodextrin] the “Inhibition of adsorption, cyclodextrin in place of α-cyclodextrin (in words)” value (from here on “Inhibition of adsorption, cyclodextrin”) [1] was “Approximately equivalent results”.
In the case of hydroxyethylated cyclodextrin, the “Inhibition of adsorption, cyclodextrin” value [1] was “Approximately equivalent results”.
“benzalkonium chloride [reference compound]” gave an Inhibition of adsorption [2] of 65%, an Inhibition of adsorption [3] of 65% and an Inhibition of adsorption [4] of 60%. For the same compound, the Antimicrobial activity ([5]; boric acid 0%, borax 0%, EDTA-2Na 0.006%, α-cyclodextrin 0.03%) was “+ (microorganisms died in 6-10 days)”.
For OB(O)O [Boric acid], the Antimicrobial activity ([5]; boric acid 0.05%, borax 0%) was “+ (microorganisms died in 6-10 days)”, the Antimicrobial activity ([5]; boric acid 0.1%, borax 0%) was “++ (microorganisms died within 5 days)” and the Antimicrobial activity ([5]; boric acid 0.2%, borax 0%) was “++ (microorganisms died within 5 days)”. For the same compound, the Antimicrobial activity ([5]; boric acid 0.4%, borax 0%) was “++ (microorganisms died within 5 days)”, the Antimicrobial activity ([5]; boric acid 0.6%, borax 0%) was “++ (microorganisms died within 5 days)” and the Antimicrobial activity ([5]; boric acid 0.8%, borax 0%) was “++ (microorganisms died within 5 days)”. The Antimicrobial activity ([5]; boric acid 1.0%, borax 0%) was “++ (microorganisms died within 5 days)” and the “Enhancement of antimicrobial activity (in words)” value [5] was “effective for enhancing the antimicrobial activity”.
For OC[C@H]1O[C@@H]2O[C@H]3[C@H](O)[C@@H](O)[C@@H](O[C@H]4[C@H](O)[C@@H](O)[C@@H](O[C@H]5[C@H](O)[C@@H](O)[C@@H](O[C@H]6[C@H](O)[C@@H](O)[C@@H](O[C@H]7[C@H](O)[C@@H](O)[C@@H](O[C@H]8[C@H](O)[C@@H](O)[C@@H](O[C@H]9[C@H](O)[C@@H](O)[C@@H](O[C@H]%10[C@H](O)[C@@H](O)[C@@H](O[C@H]1[C@H](O)[C@H]2O)O[C@@H]%10CO)O[C@@H]9CO)O[C@@H]8CO)O[C@@H]7CO)O[C@@H]6CO)O[C@@H]5CO)O[C@@H]4CO)O[C@@H]3CO [δ-cyclodextrin], the “Inhibition of adsorption, cyclodextrin” value [1] was “Approximately equivalent results”.
In the case of O=BOB(O)OB(O)OB=O [Borax], the Antimicrobial activity ([5]; boric acid 0%, borax 0.01%) was “+ (microorganisms died in 6-10 days)”, the Antimicrobial activity ([5]; boric acid 0%, borax 0.02%) was “+ (microorganisms died in 6-10 days)” and the Antimicrobial activity ([5]; boric acid 0%, borax 0.04%) was “+ (microorganisms died in 6-10 days)”. For the same compound, the Antimicrobial activity ([5]; boric acid 0%, borax 0.06%) was “+ (microorganisms died in 6-10 days)”, the Antimicrobial activity ([5]; boric acid 0%, borax 0.08%) was “+ (microorganisms died in 6-10 days)” and the Antimicrobial activity ([5]; boric acid 0%, borax 0.1%) was “+ (microorganisms died in 6-10 days)”. The Antimicrobial activity ([5]; boric acid 0%, borax 0.15%) was “++ (microorganisms died within 5 days)” and the “Enhancement of antimicrobial activity (in words)” value [5] was “effective for enhancing the antimicrobial activity”.
In the case of methylated cyclodextrin, the “Inhibition of adsorption, cyclodextrin” value [1] was “Approximately equivalent results”.
With OC[C@H]1O[C@@H]2O[C@H]3[C@H](O)[C@@H](O)[C@@H](O[C@H]4[C@H](O)[C@@H](O)[C@@H](O[C@H]5[C@H](O)[C@@H](O)[C@@H](O[C@H]6[C@H](O)[C@@H](O)[C@@H](O[C@H]7[C@H](O)[C@@H](O)[C@@H](O[C@H]8[C@H](O)[C@@H](O)[C@@H](O[C@H]1[C@H](O)[C@H]2O)O[C@@H]8CO)O[C@@H]7CO)O[C@@H]6CO)O[C@@H]5CO)O[C@@H]4CO)O[C@@H]3CO [β-cyclodextrin] the “Inhibition of adsorption, cyclodextrin” value [1] was “Approximately equivalent results”.
